Source: ChEMBL document CHEMBL4184177, “Synthesis and bioevaluation study of novel N-methylpicolinamide and thienopyrimidine derivatives as selectivity c-Met kinase inhibitors” (Bioorg Med Chem, 2018)
Calls of active or inactive are those of the source. The rule behind the calls is not given here.

Key:
[1] = biological target: Epidermal growth factor receptor (Homo sapiens, UniProt P00533); assay: Inhibition of EGFR (unknown origin) using FAM-labeled peptide substrate after 10 mins by mobility shift assay
Chain of Epidermal growth factor receptor (P00533 whole entry): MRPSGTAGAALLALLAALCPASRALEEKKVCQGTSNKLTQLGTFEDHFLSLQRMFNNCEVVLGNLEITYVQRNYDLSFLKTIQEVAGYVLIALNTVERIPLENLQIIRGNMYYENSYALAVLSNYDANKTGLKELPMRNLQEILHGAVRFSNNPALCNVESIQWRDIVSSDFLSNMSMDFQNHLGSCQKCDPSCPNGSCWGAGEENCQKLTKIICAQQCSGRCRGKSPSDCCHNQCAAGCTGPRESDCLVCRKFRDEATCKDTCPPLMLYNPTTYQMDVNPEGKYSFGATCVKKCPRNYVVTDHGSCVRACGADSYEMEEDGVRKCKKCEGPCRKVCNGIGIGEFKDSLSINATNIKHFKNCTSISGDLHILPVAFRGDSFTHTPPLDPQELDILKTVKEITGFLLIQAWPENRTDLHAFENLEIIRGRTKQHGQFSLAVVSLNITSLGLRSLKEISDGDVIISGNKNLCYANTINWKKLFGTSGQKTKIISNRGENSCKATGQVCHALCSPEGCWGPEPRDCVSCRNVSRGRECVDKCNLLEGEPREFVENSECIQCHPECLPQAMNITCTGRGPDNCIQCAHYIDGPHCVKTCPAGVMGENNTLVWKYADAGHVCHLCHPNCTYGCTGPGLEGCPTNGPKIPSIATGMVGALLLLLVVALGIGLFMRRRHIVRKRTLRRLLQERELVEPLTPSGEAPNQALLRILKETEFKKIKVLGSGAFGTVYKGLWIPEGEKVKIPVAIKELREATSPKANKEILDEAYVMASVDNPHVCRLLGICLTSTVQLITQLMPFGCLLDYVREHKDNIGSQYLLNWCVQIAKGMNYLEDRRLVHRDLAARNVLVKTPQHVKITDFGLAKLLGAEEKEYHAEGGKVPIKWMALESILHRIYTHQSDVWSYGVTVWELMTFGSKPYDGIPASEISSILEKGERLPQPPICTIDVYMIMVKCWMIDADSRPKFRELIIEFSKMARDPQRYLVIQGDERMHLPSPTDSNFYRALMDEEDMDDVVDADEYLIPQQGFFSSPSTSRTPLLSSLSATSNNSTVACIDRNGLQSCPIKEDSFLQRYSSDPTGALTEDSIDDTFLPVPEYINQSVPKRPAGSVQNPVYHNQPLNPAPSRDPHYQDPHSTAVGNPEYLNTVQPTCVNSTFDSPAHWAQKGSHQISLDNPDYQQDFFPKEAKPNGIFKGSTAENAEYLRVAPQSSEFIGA

HepG2 [2] = assay: Induction of morphological changes in human HepG2 cells assessed as chromatin condensation at 0.47 uM by acridine orange dye based inverted microscopy and fluorescence microscopic method; assay type: functional, cell-based
[3] = biological target: T1, Receptor-type tyrosine-protein kinase FLT3 (Homo sapiens, UniProt P36888); assay: Inhibition of FLT3 (unknown origin) using FAM-labeled peptide substrate after 10 mins by mobility shift assay
T1 sequence (P36888 whole entry): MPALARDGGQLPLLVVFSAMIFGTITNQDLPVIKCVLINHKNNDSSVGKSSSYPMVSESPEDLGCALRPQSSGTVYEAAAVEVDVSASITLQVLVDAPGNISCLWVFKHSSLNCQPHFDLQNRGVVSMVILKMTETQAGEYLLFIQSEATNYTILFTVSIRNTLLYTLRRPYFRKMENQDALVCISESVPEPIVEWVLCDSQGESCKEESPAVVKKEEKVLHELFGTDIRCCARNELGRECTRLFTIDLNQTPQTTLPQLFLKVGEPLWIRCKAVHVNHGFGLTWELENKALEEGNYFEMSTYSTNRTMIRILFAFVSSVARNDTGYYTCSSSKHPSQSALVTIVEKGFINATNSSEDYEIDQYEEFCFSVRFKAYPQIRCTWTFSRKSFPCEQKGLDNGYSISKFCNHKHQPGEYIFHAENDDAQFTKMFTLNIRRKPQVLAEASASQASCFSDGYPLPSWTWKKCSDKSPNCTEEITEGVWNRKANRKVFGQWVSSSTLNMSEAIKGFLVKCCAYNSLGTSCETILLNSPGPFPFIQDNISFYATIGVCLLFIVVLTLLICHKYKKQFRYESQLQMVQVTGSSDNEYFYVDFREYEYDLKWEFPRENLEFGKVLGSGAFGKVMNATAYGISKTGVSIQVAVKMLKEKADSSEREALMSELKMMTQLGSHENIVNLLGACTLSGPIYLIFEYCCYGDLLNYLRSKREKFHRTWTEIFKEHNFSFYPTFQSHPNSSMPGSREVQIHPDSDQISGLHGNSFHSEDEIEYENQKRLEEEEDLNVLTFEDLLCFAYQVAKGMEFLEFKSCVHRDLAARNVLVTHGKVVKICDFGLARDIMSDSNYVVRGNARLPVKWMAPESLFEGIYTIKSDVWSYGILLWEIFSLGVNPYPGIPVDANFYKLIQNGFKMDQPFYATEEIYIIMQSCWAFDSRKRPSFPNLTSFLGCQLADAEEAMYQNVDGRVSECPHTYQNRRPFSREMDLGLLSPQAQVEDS

HepG2 [4] = assay: Induction of morphological changes in human HepG2 cells assessed as cell shrinkage at 0.47 uM by acridine orange dye based inverted microscopy and fluorescence microscopic method; assay type: functional
HepG2 [5] = assay: Induction of apoptosis in human HepG2 cells assessed as late apoptotic cells at 0.23 uM by Annexin V-FITC/propidium iodide staining based flow cytometry (reference value: 2.07%); assay type: functional
HepG2 [6] = assay: Induction of apoptosis in human HepG2 cells assessed as early apoptotic cells at 0.94 uM by Annexin V-FITC/propidium iodide staining based flow cytometry (reference value: 1.11%); assay type: functional
HepG2 [7] = assay: Induction of apoptosis in human HepG2 cells assessed as late apoptotic cells at 0.94 uM by Annexin V-FITC/propidium iodide staining based flow cytometry (reference value: 2.07%); assay type: functional
HepG2 [8] = assay: Induction of apoptosis in human HepG2 cells assessed as early apoptotic cells at 0.47 uM by Annexin V-FITC/propidium iodide staining based flow cytometry (reference value: 1.11%); assay type: functional
HepG2 [9] = assay: Induction of apoptosis in human HepG2 cells assessed as live cells at 0.23 uM by Annexin V-FITC/propidium iodide staining based flow cytometry (reference value: 96.54%); assay type: functional
[10] = biological target: Vascular endothelial growth factor receptor 2 (Homo sapiens, UniProt P35968); assay: Inhibition of VEGFR2 (unknown origin) using FAM-labeled peptide substrate after 10 mins by mobility shift assay
Chain of Vascular endothelial growth factor receptor 2 (P35968 whole entry): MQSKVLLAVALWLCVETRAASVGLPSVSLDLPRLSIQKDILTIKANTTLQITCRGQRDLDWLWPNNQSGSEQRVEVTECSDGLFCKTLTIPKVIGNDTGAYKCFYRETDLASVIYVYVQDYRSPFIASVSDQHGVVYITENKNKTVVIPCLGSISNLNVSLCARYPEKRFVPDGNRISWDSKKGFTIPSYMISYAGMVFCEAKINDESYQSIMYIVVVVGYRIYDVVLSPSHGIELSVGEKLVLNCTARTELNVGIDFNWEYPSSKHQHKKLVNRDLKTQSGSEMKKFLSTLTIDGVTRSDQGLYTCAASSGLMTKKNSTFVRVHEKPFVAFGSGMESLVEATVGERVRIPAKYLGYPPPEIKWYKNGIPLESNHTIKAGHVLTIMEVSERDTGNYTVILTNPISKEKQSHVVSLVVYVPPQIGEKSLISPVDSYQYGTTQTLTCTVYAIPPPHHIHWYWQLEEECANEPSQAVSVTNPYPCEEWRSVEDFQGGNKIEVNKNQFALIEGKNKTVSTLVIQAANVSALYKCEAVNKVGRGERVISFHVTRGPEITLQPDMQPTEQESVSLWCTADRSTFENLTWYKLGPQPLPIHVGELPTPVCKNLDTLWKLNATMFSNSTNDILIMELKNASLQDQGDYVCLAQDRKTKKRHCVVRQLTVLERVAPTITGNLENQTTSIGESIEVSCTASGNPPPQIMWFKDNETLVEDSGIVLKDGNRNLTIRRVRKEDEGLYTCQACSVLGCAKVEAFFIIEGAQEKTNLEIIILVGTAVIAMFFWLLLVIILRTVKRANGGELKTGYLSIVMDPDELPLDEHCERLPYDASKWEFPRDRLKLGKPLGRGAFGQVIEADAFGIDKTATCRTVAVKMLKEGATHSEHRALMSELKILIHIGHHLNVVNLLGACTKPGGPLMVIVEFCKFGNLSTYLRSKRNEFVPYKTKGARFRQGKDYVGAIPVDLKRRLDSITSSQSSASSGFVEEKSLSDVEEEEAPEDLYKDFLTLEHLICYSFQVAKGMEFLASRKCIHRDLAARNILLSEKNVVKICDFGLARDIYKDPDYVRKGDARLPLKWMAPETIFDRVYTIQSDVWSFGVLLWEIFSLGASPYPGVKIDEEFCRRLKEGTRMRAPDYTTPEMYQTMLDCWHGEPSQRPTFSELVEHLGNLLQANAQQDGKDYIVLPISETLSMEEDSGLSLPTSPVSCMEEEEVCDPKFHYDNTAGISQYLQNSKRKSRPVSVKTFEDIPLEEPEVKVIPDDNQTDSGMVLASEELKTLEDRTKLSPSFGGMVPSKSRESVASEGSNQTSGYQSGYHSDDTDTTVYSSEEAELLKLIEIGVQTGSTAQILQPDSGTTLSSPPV

HepG2 [11] = assay: Induction of apoptosis in human HepG2 cells assessed as early apoptotic cells at 0.23 uM by Annexin V-FITC/propidium iodide staining based flow cytometry (reference value: 1.11%); assay type: functional
[12] = biological target: Hepatocyte growth factor receptor (Homo sapiens, UniProt P08581); assay: Inhibition of c-Met (unknown origin) using FAM-labeled peptide substrate after 10 mins by mobility shift assay
Chain of Hepatocyte growth factor receptor (P08581 whole entry): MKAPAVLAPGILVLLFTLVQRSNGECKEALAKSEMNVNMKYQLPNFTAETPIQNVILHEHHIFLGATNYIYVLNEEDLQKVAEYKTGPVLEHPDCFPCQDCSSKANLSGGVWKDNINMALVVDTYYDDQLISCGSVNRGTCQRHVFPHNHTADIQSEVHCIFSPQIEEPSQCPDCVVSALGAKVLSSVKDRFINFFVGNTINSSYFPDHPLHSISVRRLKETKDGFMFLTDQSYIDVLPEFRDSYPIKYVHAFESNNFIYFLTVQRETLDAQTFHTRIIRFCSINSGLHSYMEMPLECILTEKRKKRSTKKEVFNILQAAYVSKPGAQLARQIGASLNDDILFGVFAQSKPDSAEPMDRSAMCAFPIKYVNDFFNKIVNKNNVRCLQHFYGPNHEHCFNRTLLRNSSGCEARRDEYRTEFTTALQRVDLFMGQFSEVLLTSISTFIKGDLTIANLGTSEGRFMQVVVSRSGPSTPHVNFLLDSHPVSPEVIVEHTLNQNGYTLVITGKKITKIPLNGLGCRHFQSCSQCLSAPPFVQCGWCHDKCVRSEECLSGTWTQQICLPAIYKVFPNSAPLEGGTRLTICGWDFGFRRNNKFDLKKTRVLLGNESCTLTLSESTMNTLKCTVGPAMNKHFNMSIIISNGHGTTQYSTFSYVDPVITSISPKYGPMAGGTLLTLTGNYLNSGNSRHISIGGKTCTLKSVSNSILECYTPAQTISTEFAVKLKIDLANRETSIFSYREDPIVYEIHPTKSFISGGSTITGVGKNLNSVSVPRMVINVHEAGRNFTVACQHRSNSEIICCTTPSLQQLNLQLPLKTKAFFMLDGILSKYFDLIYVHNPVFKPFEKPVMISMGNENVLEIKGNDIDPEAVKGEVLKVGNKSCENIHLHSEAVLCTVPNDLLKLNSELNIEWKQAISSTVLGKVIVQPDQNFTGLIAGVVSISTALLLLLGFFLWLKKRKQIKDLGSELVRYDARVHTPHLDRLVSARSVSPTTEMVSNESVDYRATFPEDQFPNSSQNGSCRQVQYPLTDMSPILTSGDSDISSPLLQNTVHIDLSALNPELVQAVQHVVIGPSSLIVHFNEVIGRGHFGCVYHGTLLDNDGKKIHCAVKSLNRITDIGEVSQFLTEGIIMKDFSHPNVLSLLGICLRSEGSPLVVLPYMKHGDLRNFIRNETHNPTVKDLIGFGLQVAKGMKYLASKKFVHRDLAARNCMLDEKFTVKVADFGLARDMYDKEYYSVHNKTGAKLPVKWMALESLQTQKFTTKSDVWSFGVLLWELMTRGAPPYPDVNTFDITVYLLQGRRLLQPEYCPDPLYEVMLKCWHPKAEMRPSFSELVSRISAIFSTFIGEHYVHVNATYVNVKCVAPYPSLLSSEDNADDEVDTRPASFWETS

HepG2 [13] = assay: Induction of apoptosis in human HepG2 cells assessed as late apoptotic cells at 0.47 uM by Annexin V-FITC/propidium iodide staining based flow cytometry (reference value: 2.07%); assay type: functional
A549 = assay: Cytotoxicity against human A549 cells after 72 hrs by MTT assay; details: A549, 72 h
HepG2 [14] = assay: Induction of apoptosis in human HepG2 cells assessed as necrotic cells at 0.94 uM by Annexin V-FITC/propidium iodide staining based flow cytometry (reference value: 0.28%); assay type: functional
MCF7 [15] = assay: cells; details: Homo sapiens, MCF7, 72 h
Description: Cytotoxicity against human MCF7 cells after 72 hrs by MTT assay

HepG2 [16] = assay: Induction of apoptosis in human HepG2 cells assessed as live cells at 0.47 uM by Annexin V-FITC/propidium iodide staining based flow cytometry (reference value: 96.54%); assay type: functional
[17] = biological target: Mast/stem cell growth factor receptor Kit (Homo sapiens, UniProt P10721); assay: Inhibition of c-Kit (unknown origin) using FAM-labeled peptide substrate after 10 mins by mobility shift assay
Chain of Mast/stem cell growth factor receptor Kit (P10721 whole entry): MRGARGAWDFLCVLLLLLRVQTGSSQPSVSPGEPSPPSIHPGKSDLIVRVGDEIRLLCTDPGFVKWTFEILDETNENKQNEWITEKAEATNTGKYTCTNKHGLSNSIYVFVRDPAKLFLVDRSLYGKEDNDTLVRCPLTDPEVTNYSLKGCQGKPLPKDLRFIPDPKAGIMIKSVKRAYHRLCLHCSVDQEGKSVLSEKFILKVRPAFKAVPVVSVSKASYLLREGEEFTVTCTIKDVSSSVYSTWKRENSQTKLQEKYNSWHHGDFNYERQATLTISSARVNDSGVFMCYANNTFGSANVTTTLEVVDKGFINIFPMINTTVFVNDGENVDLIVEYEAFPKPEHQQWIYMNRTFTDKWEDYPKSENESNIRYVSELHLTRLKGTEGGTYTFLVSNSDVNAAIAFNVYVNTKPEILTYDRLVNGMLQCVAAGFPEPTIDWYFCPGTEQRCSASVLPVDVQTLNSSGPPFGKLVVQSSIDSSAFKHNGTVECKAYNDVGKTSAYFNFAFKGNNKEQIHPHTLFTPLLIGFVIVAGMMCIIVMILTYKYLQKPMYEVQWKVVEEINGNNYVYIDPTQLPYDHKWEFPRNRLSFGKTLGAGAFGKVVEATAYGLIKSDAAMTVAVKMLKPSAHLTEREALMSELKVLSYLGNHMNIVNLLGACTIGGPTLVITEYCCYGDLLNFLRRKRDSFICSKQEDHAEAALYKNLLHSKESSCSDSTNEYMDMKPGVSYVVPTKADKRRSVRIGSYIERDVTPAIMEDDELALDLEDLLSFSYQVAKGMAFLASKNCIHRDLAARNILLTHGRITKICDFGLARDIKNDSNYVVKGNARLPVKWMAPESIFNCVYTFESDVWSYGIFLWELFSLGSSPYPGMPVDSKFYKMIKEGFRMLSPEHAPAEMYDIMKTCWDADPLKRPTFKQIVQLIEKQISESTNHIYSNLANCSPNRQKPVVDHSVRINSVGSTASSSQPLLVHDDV

HepG2 [18] = assay: Induction of apoptosis in human HepG2 cells assessed as necrotic cells at 0.23 uM by Annexin V-FITC/propidium iodide staining based flow cytometry (reference value: 0.28%); assay type: functional
HepG2 [19] = assay: Potency index, ratio of foretinib IC50 to compound IC50 for human HepG2 cells; assay type: functional
MCF7 [20] = assay: Potency index, ratio of foretinib IC50 to compound IC50 for human MCF7 cells; assay type: functional
HepG2 [21] = assay: cells; details: Homo sapiens, HepG2, 72 h
Description: Cytotoxicity against human HepG2 cells after 72 hrs by MTT assay

HepG2 [22] = assay: Induction of apoptosis in human HepG2 cells assessed as live cells at 0.94 uM by Annexin V-FITC/propidium iodide staining based flow cytometry (reference value: 96.54%); assay type: functional
HepG2 [23] = assay: Induction of apoptosis in human HepG2 cells assessed as necrotic cells at 0.47 uM by Annexin V-FITC/propidium iodide staining based flow cytometry (reference value: 0.28%); assay type: functional
HepG2 [24] = assay: Induction of apoptosis in human HepG2 cells by Annexin V-FITC/propidium iodide staining based flow cytometry; assay type: functional, cell-based

Q: With `Cc1cc(=O)n(-c2ccc(F)cc2)nc1C(=O)Nc1ccc(Oc2ncnc3ccsc23)c(F)c1` as the compound, how does the IC50 [1] read?
A: 6.9 µM

Q: What about the Activity (HepG2 [2]) of the same compound?
A: Active

Q: And the IC50 [3]?
A: 0.95 µM

Q: What about the Activity (HepG2 [4]) of the same compound?
A: Active

Q: And the Activity (HepG2 [5])?
A: 6.54%

Q: What about the Activity (HepG2 [6]) of the same compound?
A: 13.9%

Q: What about the Activity (HepG2 [7]) of the same compound?
A: 21%

Q: What about the Activity (HepG2 [8]) of the same compound?
A: 16.09%

Q: What about the Activity (HepG2 [9]) of the same compound?
A: 84.11%

Q: What about the IC50 [10] of the same compound?
A: 0.45 µM

Q: What about the Activity (HepG2 [11]) of the same compound?
A: 8.08%

Q: And the IC50 [12]?
A: 0.019 µM

Q: And the Activity (HepG2 [13])?
A: 10.3%

Q: And the IC50 (A549)?
A: 0.58 µM

Q: And the Activity (HepG2 [14])?
A: 2.31%

Q: And the IC50 (MCF7 [15])?
A: 0.74 µM

Q: And the Activity (HepG2 [16])?
A: 72.36%

Q: And the IC50 [17]?
A: 3.7 µM

Q: And the Activity (HepG2 [18])?
A: 1.28%

Q: What about the “Ratio IC50” value (HepG2 [19]) of the same compound?
A: 3.73 - 5.39

Q: And the “Ratio IC50” value (MCF7 [20])?
A: 3.73 - 5.39

Q: What about the IC50 (HepG2 [21]) of the same compound?
A: 0.47 µM

Q: And the Activity (HepG2 [22])?
A: 62.8%

Q: What about the Activity (HepG2 [23]) of the same compound?
A: 1.25%

Q: What about the Activity (HepG2 [24]) of the same compound?
A: Dose-dependent effect
